The results in this text go back to ChEMBL document CHEMBL5154822, “Novel inhibitors of AChE and Aβ aggregation with neuroprotective properties as lead compounds for the treatment of Alzheimer's disease” (Eur J Med Chem, 2022).

Data set [1] in a line: Drug concentration in ICR mouse brain at 1 mg/kg, ig measured after 4 hrs by LC/MS-MS analysis. Type of data set: ADME, organism-based. The settings on record: po, read-out: Ct.
The nature of data set [2]: Ratio of drug concentration in brain to plasma in ICR mouse at 1 mg/kg, ig measured after 0.25 hrs by LC/MS-MS analysis. The class given is ADME, organism-based. Conditions: po, read-out: BPR.
Data set [3] in a line: Drug concentration in ICR mouse plasma at 1 mg/kg, ig measured after 4 hrs by LC/MS-MS analysis. Type of data set: ADME, organism-based. Conditions: po.
Data set [4] can be described thus: Drug concentration in ICR mouse plasma at 1 mg/kg, ig measured after 2 hrs by LC/MS-MS analysis. Type of data set: ADME, organism-based. Conditions: po.
Data set [5] is described as follows: Ratio of drug concentration in brain to plasma in ICR mouse at 1 mg/kg, ig measured after 0.5 hrs by LC/MS-MS analysis. The class given is ADME, organism-based. The settings on record: po, read-out: BPR.
Data set [6] can be described thus: Ratio of drug concentration in brain to plasma in ICR mouse at 1 mg/kg, ig measured after 1 hr by LC/MS-MS analysis. The class given is ADME, organism-based. Conditions: po, read-out: BPR.
The nature of data set [7]: Drug concentration in ICR mouse brain at 1 mg/kg, ig measured after 0.5 hrs by LC/MS-MS analysis. Conditions: po, read-out: Ct. Type of data set: ADME, organism-based.
Data set [8] is described as follows: Drug concentration in ICR mouse plasma at 1 mg/kg, ig measured after 1 hr by LC/MS-MS analysis. The class given is ADME, organism-based. The settings on record: po.
In data set [9] the target is T1, Acetylcholinesterase (Mus musculus, UniProt P21836).
T1 sequence (P21836 whole entry): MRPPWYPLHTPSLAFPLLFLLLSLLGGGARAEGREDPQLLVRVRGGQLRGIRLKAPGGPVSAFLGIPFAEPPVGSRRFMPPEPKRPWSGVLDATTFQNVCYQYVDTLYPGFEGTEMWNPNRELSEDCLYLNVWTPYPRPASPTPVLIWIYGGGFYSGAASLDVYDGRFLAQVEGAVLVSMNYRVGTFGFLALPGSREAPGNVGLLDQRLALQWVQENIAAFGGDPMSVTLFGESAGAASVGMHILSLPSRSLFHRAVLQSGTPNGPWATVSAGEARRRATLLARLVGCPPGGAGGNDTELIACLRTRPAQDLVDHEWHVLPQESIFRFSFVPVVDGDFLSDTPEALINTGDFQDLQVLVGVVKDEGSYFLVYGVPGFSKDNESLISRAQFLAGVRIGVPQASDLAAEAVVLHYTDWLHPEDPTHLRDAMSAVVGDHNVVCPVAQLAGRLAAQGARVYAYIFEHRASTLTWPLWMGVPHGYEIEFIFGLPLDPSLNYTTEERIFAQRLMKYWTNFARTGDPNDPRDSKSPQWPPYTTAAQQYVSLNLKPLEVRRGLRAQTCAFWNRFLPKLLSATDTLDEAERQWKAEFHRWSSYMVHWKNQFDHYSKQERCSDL
Briefly: Mixed-type inhibition of AChE in mouse cerebral cortex using acetylthiocholine iodide as substrate by double reciprocal Lineweaver-Burk plot analysis. The class given is tissue-based.

Data set [10] is described as follows: Drug concentration in ICR mouse plasma at 1 mg/kg, ig measured after 0.25 hrs by LC/MS-MS analysis. The class given is ADME, organism-based. The settings on record: po.
Data set [11] has as its target T1, Acetylcholinesterase. Briefly: Inhibition of AChE in mouse cerebral cortex using acetylthiocholine iodide as substrate preincubated for 10 mins followed by substrate addition and measured for 180 secs by Ellman's spectrophotometric method. Type of data set: tissue-based. On the technique in general: Ellman's reagent forms a yellow product with free thiols.
Data set [12] in a line: Drug concentration in ICR mouse plasma at 1 mg/kg, ig measured after 0.5 hrs by LC/MS-MS analysis. The settings on record: po. The class given is ADME, organism-based.
The nature of data set [13]: Cytotoxicity against human SH-SY5Y cells assessed as maximum non-cytotoxic concentration by CellTiter-Glo luminescent assay. The class given is toxicity, cell-based. The settings on record: read-out: MNCC.
Data set [14] is described as follows: Drug concentration in ICR mouse brain at 1 mg/kg, ig measured after 0.25 hrs by LC/MS-MS analysis. Type of data set: ADME, organism-based. Conditions: po, read-out: Ct.
The nature of data set [15]: Ratio of drug concentration in brain to plasma in ICR mouse at 1 mg/kg, ig measured after 4 hrs by LC/MS-MS analysis. Type of data set: ADME, organism-based. Conditions: po, read-out: BPR.
The nature of data set [16]: Ratio of drug concentration in brain to plasma in ICR mouse at 1 mg/kg, ig measured after 2 hrs by LC/MS-MS analysis. The class given is ADME, organism-based. The settings on record: po, read-out: BPR.
A short description of data set [17]: Drug concentration in ICR mouse brain at 1 mg/kg, ig measured after 1 hr by LC/MS-MS analysis. Type of data set: ADME, organism-based. The settings on record: po, read-out: Ct.
A short description of data set [18]: Drug concentration in ICR mouse brain at 1 mg/kg, ig measured after 2 hrs by LC/MS-MS analysis. The class given is ADME, organism-based. Conditions: po, read-out: Ct.

By Ki is commonly meant a measure of affinity in units of concentration, obtained from inhibition or displacement. As usually defined, the IC50 is the concentration that inhibits the measured activity by half. In the case of `COc1cc2c(cc1OC)S(=O)(=O)C(F)(CC1CCN(Cc3cccc(F)c3)CC1)C2` (stereo not drawn), the concentration at 4 h in data set [1] came to 21.7 ng/mL; in [3], 2.7 ng/mL. In addition, in [2], the Kp at 0.25 h was 4.17. The concentration at 2 h in data set [4] was found to be 2.59 ng/mL; in [18], 21.8 ng/mL. The Kp at 0.5 h in data set [5] stood at 5.24. Further, in data set [6], the Kp at 1 h was 6.33. Further, the results for the concentration at 0.5 h in [7] and in data set [12] were 18.1 ng/mL and 3.42 ng/mL, respectively. The results for the concentration at 1 h in data set [8] and in data set [17] were 3.48 ng/mL and 21.9 ng/mL, respectively. Also, the Ki at Acetylcholinesterase [9] stood at 0.4 nM. Besides, the concentration at 0.25 h in [10] was found to be 2.89 ng/mL; in data set [14] it was 10.6 ng/mL. Also, half-maximal inhibition against Acetylcholinesterase [11] (IC50) was put at 2.4 nM. The MNTC in [13] is 10 µM. In [15], the Kp at 4 h is 8.47. Besides, the Kp at 2 h in data set [16] was determined as 8.4.
